System: ADtg mice
Assay: Pre- and post-synaptic density in brains of AD+ mice after immune modulation
Assay type: in vivo, mouse
Details: 13m old AD+ mice (FIG. 3E)
Experimental: ADtg mice (10 months old) received subcutaneous injections of GA [also known as Cop-1 and Copaxone®; 100 μg in phosphate-buffered saline (PBS)] or PBS alone (control group) twice a week for 1 week and then once a week for 8 weeks. For evaluation of innate immune infiltration to the brain by flow cytometry, 10-month-old ADtg mice received subcutaneous injections of GA ([…]) or PBS alone twice a week for 1 week and then once a week for 3 weeks. At the end of the study, all mice were anaesthetized and then perfused with ice-cold PBS with 0.5 mM EDTA, after which their organs were collected and analyzed or fixed in 2.5% paraformaldehyde (Sigma-Aldrich), and cryoprotected with 30% sucrose for further histological analysis. […]
To define the synaptic area in the hippocampus of ADtg and non-transgenic (wild-type) mice, three independent coronal brain sections at bregma −2.50 , −2.65, and −2.80 mm (Liang et al., 2011) per animal (n=6 mice per group) were stained with the presynaptic marker VGluT1 (encoded by Slc17a7) (Chemicon, guinea pig, 1:6000). […] Single optical section images were analyzed using the NIH ImageJ macro and batch process to quantify the synaptic area (15 optical sections/field, 15 fields/brain section, and 675 total images/brain). The average synaptic area or percentage of the area per image was calculated for each condition. […]

## glatiramer acetate [GA]
  synaptic rescue (pre- and post-synaptic areas): remarkable synaptic rescue

Reference: patent US11779600B2, “Methods of treating or preventing alzheimer's disease and associated conditions” (CEDARS-SINAI MEDICAL CENTER, priority 2016, dated 2023)
